How the values were obtained:
[1] = test system: Saccharomyces cerevisiae ATCC 9763; test: Fungal growth inhibition MIC (MFC); format: cell-based; conditions: ATCC9763
From the text: (§1) We subsequently assessed the carbazole series for antifungal activity, as described in Kjellerup et al., 2017.[15] Table 2, Table 3, Table 4, Table 5 list the minimum inhibitory concentrations (MIC) and the minimum fungicidal concentrations (MFC) of the fifteen compounds tested against the yeasts Saccharomyces cerevisiae, Candida albicans, C. krusei, and two isolates of C. glabrata (a wild-type strain ATCC 90030 and a clinical azole-resistant isolate Cg003 with increased efflux pump expression[19]), and the molds Aspergillus fumigatus and A. flavus. MIC was defined as the lowest concentration inhibiting visual growth of the microorganism in RPMI-1640 media. […] However, in several cases antifungal activity against molds was minimal, Table 5.
(§2) Compound hits from the library screening were evaluated against baker yeast S. cerevisiae and C. albicans (ATCC 90028). The minimum inhibitory concentration (MIC) was defined as the lowest concentration inhibiting visual growth of the microorganism and this was determined in triplicate. Standard errors were typically less than 5%. MICs for synthesized compounds were determined on the following fungal isolates: Saccharomyces cerevisiae (ATCC 9763), Candida albicans (SC5314), Candida krusei (ATCC 6258), Candida glabrata (ATCC 90030), Aspergillus flavus (ATCC MYA-1005) and Aspergillus fumigatus (ATCC 13073), which were purchased from American Type Culture Collection, and C. glabrata strain Cg003, which was kindly provided by Julius Subik, Comenius University in Bratislava, Slovak Republic. Cg003 is a clinical isolate, characterized to be resistant to fluconazole and itraconazole due to overexpression of the multidrug resistance efflux pumps Cdr1p and Cdr2p^5. The fungal growth assay was performed as described in Kjellerup et al., 2017^6.

Candida krusei ATCC 6258 = test: Fungal growth inhibition MIC (MFC); format: cell-based; conditions: Pichia kudriavzevii, ATCC6258
From the text: as §1, §2

Candida glabrata Cg003 = test: Fungal growth inhibition MIC (MFC); format: cell-based; conditions: Nakaseomyces glabratus, Candida glabrata Cg003 (clinical azole-resistant isolate)
From the text: as §1, §2

[2] = test system: Candida glabrata ATCC 90030; test: Fungal growth inhibition MIC (MFC); format: cell-based; conditions: Nakaseomyces glabratus, ATCC90030, Candida glabrata ATCC 90030 (wild-type)
From the text: as §1, §2

Candida albicans SC5314 = test: Fungal growth inhibition MIC (MFC); format: cell-based
From the text: as §1, §2

[3] = biological target: T1, Mammalian Na^+,K^+-ATPase (Sus scrofa, UniProt P05024); test: Colorimetric ATPase assay, pig kidney membranes; format: biochemical; conditions: pH 7, n = 3; read-out: ATP hydrolysis IC50 Mammalian Na^+,K^+-ATPase
T1 construct: from tissue; host or cells: pig kidney plasma membranes (gift, Aarhus University; prepared per Klodos et al., 2002)
From the text: (§3) To investigate the H^+-ATPase inhibitory effect of the compounds we isolated plasma membranes containing H^+-ATPase from S. cerevisiae and C. albicans cells.[15] Plasma membranes isolated from pig kidney as well as endoplasmic reticulum membranes from rabbit hind leg muscle were used to counter-screen compounds for activity against mammalian Na^+,K^+-ATPase and Ca^2+-ATPase, respectively. Prior to their use, fungal plasma membrane batches were validated by determining the maximum ATP hydrolysis activity, the pH optimum of the ATPase activity, and the sensitivity to inhibition by orthovanadate. ATPase activity was determined by a colorimetric assay that measures the amount of inorganic phosphate liberated over time, as described in Kjellerup et al., 2017.[15] Table 2, Table 3, Table 4 list the IC50 values obtained by measuring the concentration dependence of the ATPase activity for the fifteen carbazole compounds with each of the four membrane preparations.
(§4) Pma1-containing plasma membranes were prepared from S. cerevisiae RS72 yeast cells that had been transformed with the full-length cDNA of the S. cerevisiae plasma membrane H^+-ATPase isoform PMA1 under control of the PMA1 promoter, using the same procedure as described in Kongstad et al., 2014^1. For the preparation of C. albicans membranes, a 100 ml overnight culture grown in YPD (10 g/L yeast extract (BD, Sparks, MD), 20 g/L Bacto peptone (BD), 20 g/L D-(+)-glucose) was transferred to 1 L YPD and grown for a further 7 h at RT with agitation (150 rpm), followed by cell harvesting and subsequent membrane preparation using the same procedure as described in Kongstad et al., 2014^1. […] Rabbit sarcoplasmic reticulum membranes containing Sarco/Endoplasmic Reticulum Ca^2+ ATPase (SERCA) were kindly provided by Dr. Claus E. Olesen and Dr. Jesper V. Møller, Aarhus University and prepared as described in Andersen et al., 1985^2. Pig kidney Na^+,K^+-ATPase was kindly provided by Dr. Natalya Fedosova, Aarhus University and prepared as described in Klodos et al., 2002^3.
(§5) The compound libraries were purchased from Enamine Ltd, Ukraine and Chembridge Corp, USA. ATPase activity was determined by measuring the amount of liberated phosphate from ATP hydrolysis. […] Reactions were initiated by the addition of Na-ATP to a final concentration of 2.5 mM (Pma1 and Na^+,K^+-ATPase) or 5 mM (SERCA), followed by 30 minutes incubation at 30 °C. The amount of liberated phosphate was determined colorimetrically after addition of STOP solution (mixture of L-ascorbic acid, ammonium heptamolybdate tetrahydrate, and HCl to give final concentrations of 65 mM, 2.2 mM, and 189 mM, respectively) with 5 minutes incubation at room temperature (RT) followed by addition of arsenite solution (mixture of NaAsO2, sodium citrate dihydrate, and acetic acid to give final concentrations of 3.1 mM, 28 mM, and 141 mM, respectively). Absorption was measured at 860 nm after an additional 30 minutes incubation at RT.

Mammalian Ca^2+-ATPase = biological target: T2, Mammalian Ca^2+-ATPase (Oryctolagus cuniculus, UniProt P04191); test: Colorimetric ATPase assay, rabbit sarcoplasmic reticulum membranes (SERCA); format: biochemical
T2 construct: from tissue; host or cells: rabbit hind leg muscle, sarcoplasmic reticulum membranes (gift, Aarhus University)
T2 sequence (P04191 1-994 isoform P04191-2): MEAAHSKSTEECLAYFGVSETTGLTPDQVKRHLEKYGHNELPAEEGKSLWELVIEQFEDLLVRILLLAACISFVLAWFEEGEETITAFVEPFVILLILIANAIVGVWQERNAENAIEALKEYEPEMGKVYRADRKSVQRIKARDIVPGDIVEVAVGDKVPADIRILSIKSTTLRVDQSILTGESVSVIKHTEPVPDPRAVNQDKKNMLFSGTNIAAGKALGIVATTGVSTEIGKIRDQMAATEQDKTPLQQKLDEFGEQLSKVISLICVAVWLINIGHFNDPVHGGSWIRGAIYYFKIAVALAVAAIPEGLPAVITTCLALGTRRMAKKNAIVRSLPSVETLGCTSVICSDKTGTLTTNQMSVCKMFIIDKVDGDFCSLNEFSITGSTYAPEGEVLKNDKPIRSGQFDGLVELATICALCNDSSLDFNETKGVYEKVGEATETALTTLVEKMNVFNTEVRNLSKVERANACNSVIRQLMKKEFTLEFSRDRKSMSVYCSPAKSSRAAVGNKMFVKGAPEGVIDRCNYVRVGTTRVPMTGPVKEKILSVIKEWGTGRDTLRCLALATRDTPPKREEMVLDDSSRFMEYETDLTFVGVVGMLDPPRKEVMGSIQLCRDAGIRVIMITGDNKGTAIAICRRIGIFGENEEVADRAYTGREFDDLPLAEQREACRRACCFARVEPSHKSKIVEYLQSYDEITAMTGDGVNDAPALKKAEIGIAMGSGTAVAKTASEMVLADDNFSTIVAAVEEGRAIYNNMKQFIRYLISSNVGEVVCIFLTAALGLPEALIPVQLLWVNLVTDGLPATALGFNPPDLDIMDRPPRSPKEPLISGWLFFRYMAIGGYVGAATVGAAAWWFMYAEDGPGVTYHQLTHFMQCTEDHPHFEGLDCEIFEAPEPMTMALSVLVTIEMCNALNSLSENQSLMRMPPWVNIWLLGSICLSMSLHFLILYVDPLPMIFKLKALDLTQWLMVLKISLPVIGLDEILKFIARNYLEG
From the text: as §3, §4, §5

SMILES: Clc1ccc2c(c1)c1cc(Cl)ccc1n2CCCN1CCOCC1 [Compound 18, 4-(3-(3,6-dichloro-9H-carbazol-9-yl)propyl)morpholine]
- MIC ([1]; Saccharomyces cerevisiae ATCC 9763, RPMI-1640): > 75 µM
- MFC ([1]; Saccharomyces cerevisiae ATCC 9763, value in brackets): > 75 µM
- MIC (Candida krusei ATCC 6258; Candida krusei ATCC 6258, RPMI-1640): > 75 µM
- MFC (Candida krusei ATCC 6258; Candida krusei ATCC 6258, value in brackets): > 75 µM
- MIC (Candida glabrata Cg003; RPMI-1640): > 75 µM
- MFC (Candida glabrata Cg003; value in brackets): > 75 µM
- MIC ([2]; RPMI-1640): > 75 µM
- MFC ([2]; value in brackets): > 75 µM
- MIC (Candida albicans SC5314; Candida albicans SC5314, RPMI-1640): > 75 µM
- MFC (Candida albicans SC5314; Candida albicans SC5314, value in brackets): > 75 µM
- IC50 [3]: 7.7 ± 3.1 µM
- IC50 (Mammalian Ca^2+-ATPase): 70.9 ± 8.4 µM
- potency on the Ca^2+-ATPase versus the three other pumps (Mammalian Ca^2+-ATPase): much less potent on the Ca^2+-ATPase than the three other pumps

Reference: article PMC5609566, “Elucidation of antimicrobial activity and mechanism of action by N-substituted carbazole derivatives” (Bioorganic & Medicinal Chemistry Letters, 2017)
